# Where two headings read alike, the source gives them in different places.
# Key:
# [1] = system: picryl chloride-induced type IV allergy; test: Inhibiting effect on a picryl chloride-induced type IV allergy (1-aryluracil derivatives); format: in vivo, male ICR strain mice; conditions: Mus musculus, po, read-out: Percent Inhibition; for inhibition in vivo at 100 mg/kg: 100 mg/kg orally twice (just after induction and 16 hours after)
# Description: (§1) The abdomen of 6-weeks old male ICR strain mice was shaven and 0.1 ml of a 7% picryl chloride solution in acetone was applied to the epithelium of the abdomen for immunization. After one week, 5 μl of a 1% picryl chloride solution in olive oil was applied to both sides of the left auricula to induce an allergy reaction. A given amount of a test substance was suspended in a 0.5% CMC-Na solution and the resulting suspension was administered orally to each mouse twice, i.e., just after the induction and 16 hours after. The thickness of the left auricula was measured both before the induction and 24 hours after.
# (§2) The difference between the thickness of the left auricula before the induction and the value measured 24 hours after was calculated as the increase in thickness. Using a reference group to which only a 0.5% CMC-Na solution was administered orally, a reference value for the increase in thickness was obtained. The percent inhibition was determined as 100% when the increase in thickness was zero and as 0% when the increase in thickness was equal to the reference value. On the basis of these criteria, the percent inhibition of each test substance was calculated at varying doses.
# [2] = Toxicity Test (Experimental Example 1, 1-aryluracil derivatives); format: in vivo, male SD rats; conditions: 1,000 mg/kg orally once a day for 2 consecutive weeks
# Description: (§3) A test substance was suspended in a 0.5% CMC-Na solution and administered orally to 6-weeks old male SD rats once a day at a dose of 1,000 mg/kg for 2 consecutive weeks. The weight of each rat was measured both before the administration and every day during the administration. A given amount of blood was collected on the day after the end of the administration period and examined. Collected urine was also examined. In addition, organs were checked for any aberrations by autopsy.
# [3] = system: picryl chloride-induced type IV allergy; test: Inhibiting effect on a picryl chloride-induced type IV allergy (3-arylpurine derivatives); format: in vivo, male ICR strain mice; conditions: left auricula thickness at 24 hours
# Description: as §1, §2
# [4] = Toxicity Test (Experimental Example 2, 3-arylpurine derivatives); format: in vivo, male SD rats; conditions: 1,000 mg/kg orally once a day for 2 consecutive weeks
# Description: as §3
# [5] = system: passive cutaneous anaphylaxis (PCA) reaction; test: Inhibiting effect on a 48 hour PCA reaction (test method for compound prepared in Example 1); format: in vivo, male Wistar strain rats; conditions: dye leakage
# Description: (§4) Eight-weeks old male Wistar strain rats were immunized by subcutaneously injecting 0.05 ml of 50-fold diluted DNP-Ascaris antiserum (titer=1:64) at four positions on the dorsum. Forty-eight hours after the immunization, 1 ml of a 0.5% Evans blue solution containing 1 mg of DNP-Ascaris antigen was administered into a tail vein to induce a PCA reaction. Thirty minutes after the induction, the rats were bled to death and blue circular parts appearing at the immunized positions were excised. The dye was extracted from the blue circular parts with ethyl acetate and the amount of the dye leakage was determined. A test substance was suspended in a 0.5% CMC-Na solution and administered orally to each rat 1 hour before the induction.
# (§5) Using a reference group to which only a 0.5% CMC-Na solution was administered orally, a reference value for the amount of dye leakage was obtained. The percent inhibition was determined as 100% when the amount of dye leakage was zero and as 0% when the amount of dye leakage was equal to the reference value. On the basis of these criteria, the percent inhibition of each test substance was calculated at varying doses.
# [6] = system: passive cutaneous anaphylaxis (PCA) reaction; test: Inhibiting effect on a 48 hour PCA reaction (test method for compound prepared in Example 22); format: in vivo, male Wistar strain rats; conditions: 100 mg/kg orally 30 minutes before the induction; dye leakage
# Description: as §4, with “0.1” for “0.05”, “700-fold” for “50-fold”, “(titer=1:1024)” for “(titer=1:64)”, “two” for “four”, “pedal” for “tail”, “at a dose of 100 mg/kg 30 minutes” for “1 hour”
# as §5
# [7] = 10 mg/kg orally twice (just after induction and 16 hours after), left auricula thickness at 24 hours
# [8] = left auricula thickness at 24 hours
# [9] = 10 mg/kg orally twice (just after induction and 16 hours after)
# [10] = 100 mg/kg orally twice (just after induction and 16 hours after)
smiles,measurement,setting,value
"CC(=O)Oc1cc(OC(C)=O)cc(C(=O)Nc2c(N)n(-c3ccccc3)c(=O)n(C)c2=O)c1 [Example 7, 6-Amino-5-(3,5-diacetoxyphenyl)carboxyamido-3-methyl-1-phenyluracil]",inhibition in vivo at 10 mg/kg,[1]; [7],65%
same,autopsy,[2],no abnormality was observed
same,blood examination,[2],no abnormality was observed
same,death during the administration period,[2],no rat died
same,urine examination,[2],no abnormality was observed
same,weight change,[2],no abnormality was observed
"CCCn1c(=O)c(NC(=O)c2cc(OC(C)=O)cc(OC(C)=O)c2)c(N)n(-c2ccccc2)c1=O [Example 11, 6-Amino-5-(3,5-diacetoxyphenyl)carboxyamido-1-phenyl-3-propyluracil]",inhibition in vivo at 100 mg/kg,[1]; [8],30%
"CC(=O)Oc1ccc(C(=O)Nc2c(N)n(-c3ccccc3)c(=O)n(C)c2=O)cc1OC(C)=O [Example 34, 6-Amino-5-(3,4-diacetoxyphenyl)carboxyamido-3-methyl-1-phenyluracil]",inhibition in vivo at 10 mg/kg,[1]; [7],33%
same,inhibition in vivo at 100 mg/kg,[1]; [8],52%
"Cn1c(=O)c(NC(=O)c2cc(O)cc(O)c2)c(N)n(-c2ccccc2)c1=O [Example 14, 6-Amino-5-(3,5-dihydroxyphenyl)carboxyamido-3-methyl-1-phenyluracil]",inhibition in vivo at 10 mg/kg,[1]; [7],45%
"Cn1c(=O)c2[nH]c(-c3ccc(O)c(O)c3)nc2n(-c2ccccc2)c1=O [Example 78, 8-(3,4-Dihydroxyphenyl)-1-methyl-3-phenylpurine-2,6-dione]",Percent Inhibition,[3]; [9],35%
"COc1ccc(-n2c(N)c(NC(=O)c3cc(C(C)(C)C)c(O)c(C(C)(C)C)c3)c(=O)n(C)c2=O)cc1 [Example 4, 6-Amino-5-(3,5-di-tert-butyl-4-hydroxyphenyl)carboxyamido-1-(4-methoxyphenyl)-3-methyluracil]",inhibition in vivo at 10 mg/kg,[1]; [7],35%
"Cn1c(=O)c2[nH]c(-c3cc(C(C)(C)C)c(O)c(C(C)(C)C)c3)nc2n(-c2ccccc2)c1=O [Example 74, 8-(3,5-Di-tert-butyl-4-hydroxyphenyl)-1-methyl-3-phenylpurine-2,6-dione]",autopsy,[4],no abnormality was observed
same,blood examination,[4],no abnormality was observed
same,death during the administration period,[4],no rat died
same,urine examination,[4],no abnormality was observed
same,weight change,[4],no abnormality was observed
same,Percent Inhibition,[3]; [9],38%
"COc1ccc(-n2c(N)c(NC(=O)c3cc(OC)ccc3OC(C)=O)c(=O)n(C)c2=O)cc1 [Example 55, 5-(2-Acetoxy-5-methoxyphenyl)carboxyamido-6-amino-1-(4-methoxyphenyl)-3-methyluracil]",inhibition in vivo at 100 mg/kg,[1]; [8],35%
"CC1CCC(C(=O)Nc2c(N)n(-c3ccccc3)c(=O)n(C)c2=O)CC1 (centres unmarked) [Example 60, 6-Amino-3-methyl-5-(4-methylcyclohexyl)carboxyamido-1-phenyluracil]",inhibition in vivo at 10 mg/kg,[1]; [7],40%
"Cn1c(=O)c(NC(=O)c2cc(C(C)(C)C)c(O)c(C(C)(C)C)c2)c(N)n(-c2ccc(F)cc2)c1=O [Example 2, 6-Amino-5-(3,5-di-tert-butyl-4-hydroxyphenyl)carboxyamido-1-(4-fluorophenyl)-3-methyluracil]",inhibition in vivo at 3 mg/kg,"[1]; 3 mg/kg orally twice (just after induction and 16 hours after), left auricula thickness at 24 hours",38%
"Cn1c(=O)c(NC(=O)c2cc(C(C)(C)C)c(O)c(C(C)(C)C)c2)c(N)n(-c2ccccc2)c1=O [Example 1, 6-Amino-5-(3,5-di-tert-butyl-4-hydroxyphenyl)carboxyamido-3-methyl-1-phenyluracil]",inhibition in vivo at 10 mg/kg,[1]; [7],54%
same,Percent Inhibition,[5]; 3 mg/kg orally 1 hour before the induction,33%
same,Percent Inhibition,[5]; 30 mg/kg orally 1 hour before the induction,49%
"COc1ccc(O)c(C(=O)Nc2c(N)n(-c3ccccc3)c(=O)n(C)c2=O)c1 [Example 53, 6-Amino-5-(2-hydroxy-5-methoxyphenyl)carboxyamido-3-methyl-1-phenyluracil]",inhibition in vivo at 10 mg/kg,[1]; [7],45%
same,autopsy,[2],no abnormality was observed
same,blood examination,[2],no abnormality was observed
same,death during the administration period,[2],no rat died
same,urine examination,[2],no abnormality was observed
same,weight change,[2],no abnormality was observed
"COc1ccc(/C=C/C(=O)Nc2ccccc2C(=O)O)cc1OC [Tranilast, tranilast, reference compound]",Percent Inhibition,[5]; 100 mg/kg orally 1 hour before the induction,66%
same,Percent Inhibition,[6],35%
"Cn1c(=O)c(NC(=O)c2cc(=O)cco2)c(N)n(-c2ccccc2)c1=O [Example 51, 6-Amino-3-methyl-5-(4-oxo-4H-pyran-2-yl)carboxyamido-1-phenyluracil]",inhibition in vivo at 10 mg/kg,[1]; [7],45%
"COc1ccc(-n2c(=O)n(C)c(=O)c3[nH]c(-c4cc(C(C)(C)C)c(O)c(C(C)(C)C)c4)nc32)cc1 [Example 75, 8-(3,5-Di-tert-butyl-4-hydroxyphenyl)-3-(4-methoxyphenyl)-1-methylpurine-2,6-dione]",Percent Inhibition,[3]; [9],16%
same,Percent Inhibition,[3]; [10],34%
"Cn1c(=O)c(NC(=O)C2(C)CCCCC2)c(N)n(-c2ccccc2)c1=O [Example 61, 6-Amino-3-methyl-5-(1-methylcyclohexyl)carboxyamido-1-phenyluracil]",inhibition in vivo at 100 mg/kg,[1]; [8],32%
"CC(=O)Oc1cc(C(=O)Nc2c(N)n(-c3ccccc3)c(=O)n(C)c2=O)cc(OC(C)=O)c1OC(C)=O [Example 22, 6-Amino-3-methyl-1-phenyl-5-(3,4,5-triacetoxyphenyl)carboxyamidouracil]",inhibition in vivo at 10 mg/kg,[1]; [7],48%
same,inhibition in vivo at 100 mg/kg,[1]; [8],72%
same,Percent Inhibition,[6],50%
"CC(=O)Oc1cc(-c2nc3c([nH]2)c(=O)n(C)c(=O)n3-c2ccccc2)cc(OC(C)=O)c1OC(C)=O [Example 80, 1-Methyl-3-phenyl-8-(3,4,5-triacetoxyphenyl)purine-2,6-dione]",Percent Inhibition,[3]; [9],37%
same,Percent Inhibition,[3]; [10],53%
"Cn1c(=O)c(NC(=O)c2ccc(=O)oc2)c(N)n(-c2ccccc2)c1=O [Example 52, 6-Amino-3-methyl-5-(2-oxo-2H-pyran-5-yl)carboxyamido-1-phenyluracil]",inhibition in vivo at 10 mg/kg,[1]; [7],19%
same,inhibition in vivo at 100 mg/kg,[1]; [8],39%
"Cc1ccc(-n2c(N)c(NC(=O)c3cc(C(C)(C)C)c(O)c(C(C)(C)C)c3)c(=O)n(C)c2=O)cc1 [Example 3, 6-Amino-5-(3,5-di-tert-butyl-4-hydroxyphenyl)carboxyamido-3-methyl-1-(4-methylphenyl)uracil]",inhibition in vivo at 10 mg/kg,[1]; [7],33%
"C[C@]12C=CC(=O)C=C1CC[C@@H]1[C@@H]2[C@@H](O)C[C@@]2(C)[C@H]1CC[C@]2(O)C(=O)CO [Prednisolone, prednisolone, reference compound]",inhibition in vivo at 10 mg/kg,[1]; 24 h,77%
same,Percent Inhibition,[3]; [9],67%
"CC(=O)Oc1cc(OC(C)=O)cc(C(=O)Nc2c(N)n(-c3ccc(F)cc3)c(=O)n(C)c2=O)c1 [Example 8, 6-Amino-5-(3,5-diacetoxyphenyl)carboxyamido-1-(4-fluorophenyl)-3-methyluracil]",inhibition in vivo at 10 mg/kg,[1]; [7],43%
